Consider 3 compounds from publication PMC4492579, “Potent and Selective Triazole-Based Inhibitors of the Hypoxia-Inducible Factor Prolyl-Hydroxylases with Activity in the Murine Brain” (PLoS ONE, 2015).

Assay [1] relates to MCF-7, Hep3B and U2OS cells. In words: Immunoblotting of HIF1α induction in MCF-7, Hep3B and U2OS cells. Format: cell-based, human. To be noted: immunoblot. How it is done:
Human cell lines (RCC4, HeLa, Hep3B, MCF-7 and U2OS) were cultured in DMEM (D6546-500ML; Sigma Aldrich) each supplemented with 10% fetal bovine serum (F7524-500ML; Sigma Aldrich), 2 mM L-glutamine (G7513- 100ML; Sigma Aldrich), 50 units/ml of penicillin, and 50 μg/ml of streptomycin (P0781-100ML; Sigma Aldrich). The RCC4 cell line was a gift from C.H.C.M. Buys (University of Groningen, [2]), the HeLa and Hep3B cell lines were from the European Collection of Cell Cultures (ECACC), the MCF-7 cell line was from the American Type Culture Collection (ATCC) and the U2OS cell line was a gift from S.Galey (ICRF Clare Hall Laboratories, United Kingdom). Cells were treated either with DMSO (control) or compounds (dissolved in DMSO) and added directly into the cell culture medium to the desired final concentration for 4–5 h as previously described.
Cells were extracted using urea/SDS buffer (6.7 M urea, 10 mM Tris-HCl pH 6.8, 10% glycerol and 1% SDS) and processed for immunoblotting as described. […]

The next assay deals with HIF1α and HIF2α. The experiment in a line: HIFα induction in tissues of treated mice (immunoblotting). The format is in vivo, C57BL/6 mice. The following applies: i.p.; for HIF1α and HIF2α induction in liver, kidney and heart / HIF1α and HIF2α induction in the brain: equimolar: IOX2 37.7 mg/kg, IOX4 35 mg/kg, DMOG 75 mg/kg. How it is done: All animal experiments were performed on male C57BL/6 mice aged 3 months (purchased from Harlan Laboratories, Blackthorn) housed in specific pathogen free conditions with free access to water and standard chow. Mice were injected intraperitonially with the inhibitor (dissolved in Hanks’ buffered saline solution, pH 7.0, 5% DMSO final) or vehicle at the indicated doses for the indicated time as previously described. Tissues from treated mice were harvested and ‘snap frozen’ with liquid nitrogen before being stored at -80°C. For immunoblotting, a portion of the tissues was removed, weighed and homogenised in urea/SDS buffer before being analysed by immunoblotting with HIF1α rabbit polyclonal antibody (10006421, Cayman Chemical, 1:1000) or HIF2α rabbit polyclonal antibody (PM9 [27], 1:1000). For RNA extraction, tissues were ‘snap frozen’ in liquid nitrogen immediately after harvesting, then ground to a fine powder using a cryogenic tissue pulveriser, keeping samples on dry ice at all times and processed for total RNA extraction using the mirVana miRNA isolation kit (AM1560, Life Technologies) according to the manufacturer’s protocol for processing frozen tissues. All animal procedures were compliant with the UK Home Office Animals (Scientific Procedures) Act 1986 and Local Ethical Review Procedures (University of Oxford Medical Sciences Division Ethical Review Committee).
The inhibitors or vehicle controls were injected intraperitonially into wild type C57BL/6 mice and sacrificed after the indicated treatment time before harvesting their tissues to be analysed for HIFα levels by immunoblotting.
On the technique in general: In western blotting, separated proteins are transferred to a membrane and probed.

The target in the next assay is T1, JMJD2A (KDM4A) (Homo sapiens, UniProt O75164).
T1 sequence (O75164 1-1064): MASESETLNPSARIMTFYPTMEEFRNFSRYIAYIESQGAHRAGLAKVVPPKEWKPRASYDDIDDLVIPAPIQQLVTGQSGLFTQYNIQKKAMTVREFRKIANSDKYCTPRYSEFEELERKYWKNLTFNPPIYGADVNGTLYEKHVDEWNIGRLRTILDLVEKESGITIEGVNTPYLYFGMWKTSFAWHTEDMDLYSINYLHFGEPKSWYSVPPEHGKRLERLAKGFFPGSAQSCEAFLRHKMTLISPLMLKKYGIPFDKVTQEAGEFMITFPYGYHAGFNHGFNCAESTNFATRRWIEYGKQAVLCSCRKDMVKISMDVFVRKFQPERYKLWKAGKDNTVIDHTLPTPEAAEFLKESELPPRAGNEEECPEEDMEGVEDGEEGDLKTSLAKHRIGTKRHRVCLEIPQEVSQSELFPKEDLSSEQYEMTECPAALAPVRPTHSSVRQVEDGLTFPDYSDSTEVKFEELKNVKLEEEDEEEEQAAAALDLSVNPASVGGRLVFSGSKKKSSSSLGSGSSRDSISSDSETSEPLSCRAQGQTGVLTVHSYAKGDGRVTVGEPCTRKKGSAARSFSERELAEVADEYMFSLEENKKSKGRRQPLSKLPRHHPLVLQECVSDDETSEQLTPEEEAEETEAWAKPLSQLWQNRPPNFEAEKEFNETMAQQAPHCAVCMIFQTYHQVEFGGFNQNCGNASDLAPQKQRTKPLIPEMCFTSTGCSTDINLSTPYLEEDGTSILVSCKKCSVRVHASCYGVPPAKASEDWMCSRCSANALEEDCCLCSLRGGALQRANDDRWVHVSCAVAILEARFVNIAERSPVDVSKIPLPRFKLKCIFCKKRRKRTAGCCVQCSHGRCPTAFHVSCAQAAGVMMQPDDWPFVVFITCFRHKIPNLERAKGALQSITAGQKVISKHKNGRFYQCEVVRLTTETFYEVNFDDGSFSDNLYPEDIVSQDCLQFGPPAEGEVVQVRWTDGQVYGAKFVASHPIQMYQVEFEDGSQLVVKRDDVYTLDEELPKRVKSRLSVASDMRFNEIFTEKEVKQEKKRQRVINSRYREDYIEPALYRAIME
The experiment in a line: KDM AlphaScreen assay, JMJD2A. Background: Alpha assays give light when donor and acceptor beads are brought close together.

For the next assay, the target named is JARID1C (KDM5C) (Homo sapiens, UniProt P41229). In words: KDM AlphaScreen assay, JARID1C.

Structures can show the parent of a compound that is named as a salt. A value given as a limit tells only on which side of the number the result lay.

Broadly, the IC50 is the midpoint of a concentration-inhibition curve. Low values mean greater potency, high ones weaker potency.

Sequence of JARID1C (KDM5C) (P41229 whole entry): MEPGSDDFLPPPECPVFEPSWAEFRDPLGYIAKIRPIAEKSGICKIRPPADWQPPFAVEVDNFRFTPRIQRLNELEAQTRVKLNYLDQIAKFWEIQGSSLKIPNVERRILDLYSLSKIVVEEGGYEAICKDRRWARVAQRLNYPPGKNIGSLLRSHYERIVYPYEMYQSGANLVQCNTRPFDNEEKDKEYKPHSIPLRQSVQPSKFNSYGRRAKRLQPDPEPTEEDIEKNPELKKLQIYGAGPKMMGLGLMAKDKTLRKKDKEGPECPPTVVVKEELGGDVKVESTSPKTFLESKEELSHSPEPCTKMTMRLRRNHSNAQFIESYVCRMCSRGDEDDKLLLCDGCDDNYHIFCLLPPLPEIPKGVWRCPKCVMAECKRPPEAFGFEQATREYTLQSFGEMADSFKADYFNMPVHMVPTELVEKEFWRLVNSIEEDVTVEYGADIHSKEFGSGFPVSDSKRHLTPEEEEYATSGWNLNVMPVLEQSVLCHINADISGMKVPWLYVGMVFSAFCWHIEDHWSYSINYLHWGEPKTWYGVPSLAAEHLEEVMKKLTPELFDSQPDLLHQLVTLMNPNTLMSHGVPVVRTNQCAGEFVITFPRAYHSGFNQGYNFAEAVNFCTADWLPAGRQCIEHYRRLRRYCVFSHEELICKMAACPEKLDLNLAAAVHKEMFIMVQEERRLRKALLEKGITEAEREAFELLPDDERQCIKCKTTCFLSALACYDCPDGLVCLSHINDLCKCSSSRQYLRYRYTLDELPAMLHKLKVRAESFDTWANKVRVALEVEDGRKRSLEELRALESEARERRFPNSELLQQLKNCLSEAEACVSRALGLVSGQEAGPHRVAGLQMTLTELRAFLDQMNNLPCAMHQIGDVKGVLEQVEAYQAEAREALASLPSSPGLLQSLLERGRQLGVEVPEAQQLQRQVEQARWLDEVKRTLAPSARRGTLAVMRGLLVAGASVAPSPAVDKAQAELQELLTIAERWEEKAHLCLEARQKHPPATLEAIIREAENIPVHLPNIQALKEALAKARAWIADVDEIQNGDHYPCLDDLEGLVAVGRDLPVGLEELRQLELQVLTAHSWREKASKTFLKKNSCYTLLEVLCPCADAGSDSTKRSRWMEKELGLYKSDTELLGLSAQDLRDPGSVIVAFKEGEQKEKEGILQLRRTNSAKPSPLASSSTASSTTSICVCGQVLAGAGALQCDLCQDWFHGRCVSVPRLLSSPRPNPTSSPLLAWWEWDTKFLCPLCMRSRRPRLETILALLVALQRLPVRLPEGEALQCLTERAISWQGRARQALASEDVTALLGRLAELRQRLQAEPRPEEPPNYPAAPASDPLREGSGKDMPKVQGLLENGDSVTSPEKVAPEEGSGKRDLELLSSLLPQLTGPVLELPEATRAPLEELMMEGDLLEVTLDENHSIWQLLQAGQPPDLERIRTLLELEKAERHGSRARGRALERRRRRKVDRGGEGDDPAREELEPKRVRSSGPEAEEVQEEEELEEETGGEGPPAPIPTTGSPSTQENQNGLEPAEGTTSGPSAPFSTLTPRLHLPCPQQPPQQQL
Protocol for JARID1C (KDM5C): Inhibition assays for PHD2 (AlphaScreen) [9], the KDMs (AlphaScreen) [17], BBOX [18] and FTO [19] were carried out as previously described. […] IC50 values were calculated using nonlinear regression with normalized dose-response fit using GraphPad Prism 5.
Protocol for JMJD2A (KDM4A): Inhibition assays for PHD2 (AlphaScreen) [9], the KDMs (AlphaScreen) [17], BBOX [18] and FTO [19] were carried out as previously described. N-Terminally biotinylated 19-residue human HIF1α CODD peptide ([sequence]) used in the PHD2 inhibition assays was from GL Biochem (Shanghai). IC50 values were calculated using nonlinear regression with normalized dose-response fit using GraphPad Prism 5.

For `O=C(O)CNC(=O)c1c(O)c2ccccc2n(Cc2ccccc2)c1=O` [IOX2], in assay [1], the HIF1α induction entry is listed as “Induction of HIF1α levels were observed”. Moreover, in the assay with HIF1α and HIF2α (1 h), the “HIF1α and HIF2α induction in liver, kidney and heart” value is given as “strongest induction”; the “HIF1α and HIF2α induction in the brain” value is reported as “not”. For the same compound, the “HIF1α induction in mouse liver” value in the assay with HIF1α and HIF2α (IOX2 37.7 mg/kg, IOX3 30 mg/kg (equivalent molar dose), 1 h and […]) is “induced in mouse liver after 1 h”.
Consider `CC(C)(C)OC(=O)c1ccc(-n2[nH]cc(-n3ccnn3)c2=O)nc1` [IOX4, t-Butyl 6-(5-oxo-4-(1H-1,2,3-triazol-1-yl)-2,5-dihydro-1H-pyrazol-1-yl)nicotinate], for which the HIF1α induction entry in assay [1] is given as “Induction of HIF1α levels were observed”. Further, the “HIF1α and HIF2α induction in the liver and brain, dose dependence” value in the assay on HIF1α and HIF2α (1 h, 17.5 to 70 mg/kg) is “Dose-dependent induction”. Further, in the assay with HIF1α and HIF2α (1 h), the “HIF1α and HIF2α induction in liver, kidney and heart” value was “induction of HIF1α and HIF2α”; the “HIF1α and HIF2α induction in the brain” value is reported as “induced”. This compound also registered a 50% inhibitory concentration (IC50) on JMJD2A (KDM4A) of over 20 µM. At JARID1C (KDM5C), the IC50 was over 100 µM.
`O=C(O)c1ccc(-n2[nH]cc(-n3ccnn3)c2=O)nc1` [compound 1, 6-(5-oxo-4-(1H-1,2,3-triazol-1-yl)-2,5-dihydro-1H-pyrazol-1-yl)pyridine-3-carbocylic acid hydrochloride]: the IC50 at JMJD2A (KDM4A) was over 20 µM; on JARID1C (KDM5C) it was over 100 µM.
